Source: article PMC10165273, “Itch receptor MRGPRX4 interacts with the receptor activity–modifying proteins” (The Journal of Biological Chemistry, 2023)
Where “and” joins values, the source holds several entries; their conditions need not be identical. Equal entries are not always repeated.

Assays:
[1] = biological target: T1, MRGPRX4 + RAMP3 (Homo sapiens, UniProt Q96LA9); test: IP1 accumulation, MRGPRX4 coexpressed with RAMP3; assay type: cell-based; set-up: key to IP1 Basal / response to agonist, X4:ramp3.I:0.25 / response to agonist, X4:ramp3.I:0.5 / response to agonist, X4:ramp3.I:1: % IP1; unstimulated mock = 0%, fully stimulated MRGPRX4 = 100%; conditions: Figure 4c-f, agonist 100µM, MRGPRX4 = 100
T1 construct: expressed in transfected cells; host or cells: HEK293T
T1 sequence (Q96LA9 whole entry): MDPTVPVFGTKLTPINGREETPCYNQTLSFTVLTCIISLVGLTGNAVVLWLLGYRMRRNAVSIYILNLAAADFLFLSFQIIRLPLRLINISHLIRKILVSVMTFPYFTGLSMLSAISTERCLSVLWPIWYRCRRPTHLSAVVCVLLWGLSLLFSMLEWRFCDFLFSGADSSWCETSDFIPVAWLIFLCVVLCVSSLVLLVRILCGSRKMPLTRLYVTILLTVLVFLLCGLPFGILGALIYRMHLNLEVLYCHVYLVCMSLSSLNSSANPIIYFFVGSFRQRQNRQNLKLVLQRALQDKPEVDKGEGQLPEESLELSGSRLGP

[2] = biological target: T2, MRGPRX4 + RAMP2 (Homo sapiens, UniProt Q96LA9); test: IP1 accumulation, MRGPRX4 coexpressed with RAMP2; assay type: cell-based; set-up: key to response to agonist, X4:ramp2.I:2: % IP1: mock-transfected unstimulated = 0%, fully stimulated MRGPRX4 = 100%; key to IP1 Basal / response to agonist, X4:ramp2.I:0.25 / response to agonist, X4:ramp2.I:0.5 / response to agonist, X4:ramp2.I:1: % IP1; unstimulated mock = 0%, fully stimulated MRGPRX4 = 100%; conditions: Figure 4c-f, agonist 100µM, MRGPRX4 = 100
T2 construct: expressed in transfected cells; host or cells: HEK293T
T2 sequence (Q96LA9 whole entry): as above

[3] = test system: mock-transfected HEK293T cells; test: IP1 accumulation, mock-transfected cells; assay type: cell-based, human; set-up: IP1 Basal / IP1 span / IP1 Emax / IP1 accumulation, dose-response (Figure 1a) / IP1 accumulation with YM (Figure 1c) / IP1 accumulation: unit not given here; conditions: pcDNA (mock), individual replicates

Compound: C[C@H](CCC(=O)NCCS(=O)(=O)O)[C@H]1CC[C@H]2[C@@H]3CC[C@@H]4C[C@H](O)CC[C@]4(C)[C@H]3C[C@H](O)[C@]12C [TDCA, Taurodeoxycholic acid]
- response to agonist, X4:ramp3.I:0.25 ([1]; X4:ramp3 1:0.25): 75.8743 and 69.8198
- response to agonist, X4:ramp3.I:0.5 ([1]; X4:ramp3 1:0.5): 71.1633 and 71.0507
- response to agonist, X4:ramp3.I:1 ([1]; X4:ramp3 1:1): 68.5255 and 51.1881
- response to agonist, X4:ramp2.I:0.25 ([2]; X4:ramp2 1:0.25): 76.6313 and 76.3781
- response to agonist, X4:ramp2.I:0.5 ([2]; X4:ramp2 1:0.5): 59.1022 and 61.5718
- response to agonist, X4:ramp2.I:1 ([2]; X4:ramp2 1:1): 39.1806 and 35.15
- response to agonist, X4:ramp2.I:2 ([2]; X4:ramp2 1:2): 12.332 and 15.0971
- IP1 accumulation, dose-response (Figure 1a) ([3]; log [agonist] (M) -4): 0.277 and 0.4314 and 0.7552 and 0.05214 and 0.8196 and 0.004346 and 0.07799 and 0.2082 and -0.7055 and 0.02887 and 0.02154 and -0.2702
- IP1 accumulation, dose-response (Figure 1a) ([3]; log [agonist] (M) -4.95424): 0.666 and 0.2913 and 0.6803 and 0.05284 and 0.1544 and 0.254 and 0.03541 and -0.4236 and -0.5986 and 0.1648 and -0.7514 and -0.1187
- IP1 accumulation, dose-response (Figure 1a) ([3]; log [agonist] (M) -5.90849): 0.6055 and 0.3564 and 0.9177 and 0.421 and 0.4207 and 0.09062 and 0.2243 and -0.1271 and -0.5946 and 0.5044 and 0.1318 and -0.2093
- IP1 accumulation, dose-response (Figure 1a) ([3]; log [agonist] (M) -6.86273): 0.7575 and 0.6878 and 1.269 and 0.5282 and 0.9623 and 0.4904 and 0.6445 and 0.2971 and -0.08157 and 1.2983 and 1.581 and 1.374
